Measured values taken from patent US20220265676A1, “[…] DIBENZO[…] COMPOUNDS FOR USE IN THE THERAPY OF CDKL5 DISORDER” (Healx Limited, priority 2016, published 2022).

Columns and labels:
Cdkl5 knockout mice = experiment: Rotarod assessment of motor coordination in Cdkl5 knockout mice; format: in vivo
From the text: The generation of Cdkl5 knockout mice and rotarod assessment of motor coordination could be carried out following the method described in Wang, I. -T. J et al. (2012) PNAS 109: 21516-21521, as follows.

[1] = tested on: AMPA receptor subunit GluR2; experiment: CDKL5 gene silencing experiment, Western blotting of GluR2 and GluR2 phospho-Ser880 in primary hippocampal cultures; format: cell-based, mouse; details: CDKL5-silenced hippocampal neurons
[2] = tested on: AMPA receptor subunit GluR2; experiment: CDKL5 gene silencing experiment, immunofluorescence of cell-surface expressed GluR2 in primary hippocampal cultures; format: cell-based, mouse; details: 10 uM on alternate days from DIV11 to DIV18 (DIV11-13-15-17); CDKL5-silenced hippocampal neurons
[3] = 10 uM on alternate days from DIV11 to DIV18 (DIV11-13-15-17)
[4] = 10 μM on alternate days from DIV15-18 (DIV15-17)

Structure (SMILES)	time spent on the rotarod before falling (Cdkl5 knockout mice; Cdkl5 knockout mice treated before onset of motor deficits, at 3 weeks of age, relative to untreated mice)	rotarod scores (motor coordination and balance) (Cdkl5 knockout mice; Cdkl5 knockout mice treated from 6 weeks of age for 4 weeks, after onset of motor deficits, versus vehicle)	effect of CDKL5 silencing on expression of the AMPA receptor subunit GluR2 (Western blotting) [1, 3]	effect of CDKL5 silencing on phosphorylated GluR2 (phosphorylation at serine-880) (Western blotting) [1, 3]	effect of CDKL5 silencing on expression of GluR2 in terms of number of puncta (immunofluorescence) [2]	effect of CDKL5 silencing on expression of the AMPA receptor subunit GluR2 (Western blotting) [1, 4]	effect of CDKL5 silencing on phosphorylated GluR2 (phosphorylation at serine-880) (Western blotting) [1, 4]
CN1c2ccccc2C(NCCCCCCC(=O)O)c2ccc(Cl)cc2S1(=O)=O (stereo not drawn) [Tianeptine, 7-[(3-chloro-6,1′-dihydro-6-methyl-dibenzo[c,f][1,2]thiazepin-11-yl)amino]heptanoic acid S,S-dioxide]	increase the time spent on the rotarod before falling	higher than scores for Cdkl5 knockout mice given vehicle but are below WT values	–	–	–	–	–
CN1c2ccccc2C(NCCCCCCC(=O)O)c2ccc(Cl)cc2S1(=O)=O.O=S(=O)(O)O (stereo not drawn) [tianeptine sulphate]	–	–	reversed the effect of CDKL5 silencing	reversed the effect of CDKL5 silencing	reversed the effect of CDKL5 silencing	–	–
CN1c2ccccc2C(NCCCCOCC(=O)O)c2ccc(Cl)cc2S1(=O)=O.Cl (stereo not drawn) [TIOX, 2-(4-((3-chloro-6-methyl-5,5-dioxido-6,11-dihydrodibenzo[c,f][1,2]thiazepin-11-yl)amino)butoxy)acetic acid, HCl salt]	–	–	reversed the effect of CDKL5 silencing	reversed the effect of CDKL5 silencing	–	reversed the effect of CDKL5 silencing	reversed the effect of CDKL5 silencing
